One test concerns ileum of guinea-pigs. Description: Guinea pig ileum test in vitro. On the procedure:
The guinea pig ileum test consisted of a 10 ml thermostatic bath held at 35° C., containing the ileum of a male guinea pig, under 0.5 g traction, carboxygenated in a Tyrode solution; this was left for 30 minutes to stabilize before the compounds were tested. The response was recorded using a isotonic frontal lever, long enough to amplify the response 4.5 times.

The next test has as its system uterus of rats. Briefly: Rat uterus test in vitro (oestrogenized rat uteri). On the procedure: The rat uterus test consisted of a 10 ml thermostatic bath held at 29° C., in which oestrogenized rat uteri under 0.5 g traction were carboxygenated in a Dejalon saline solution. The preparation was left to stabilize for 30 minutes before the compounds and the standard were tested. Response was measured using a isotonic frontal lever, long enough to amplify the response 4.5 times.

A further test concerns stomach of rats. Description: Activity in vitro in the stomach of rats. As to conditions: rat stomach.
The test system of test [1] is stress-induced gastric ulcers. Description: Inhibition of stress-induced gastric ulcers in rats (Takagi-Okabe method). The following applies: anti-ulcer; for ED50: Rattus norvegicus, read-out: ED50 (Fiducial Limits For P=0.05); for Potency Ratio (Fiducial Limits For P=0.05): PGE2 = 1 (conventional value). The class given is in vivo, rat. The source says: (§1) Moreover, the compounds of the present invention are endowed with an excellent anti-ulcer activity as well as with a strong gastric anti-secretory effect, as shown by the following Tables: where the conventional value of 1 is given to the anti-ulcer and anti-secretory activity of PGE2, and where the compounds of the invention are compared also with 13,14-dehydro-PGE2, 16S-methyl-PGE2 and 16(S,R)-methyl-13,14-dehydro-PGE2.
INHIBITION OF STRESS-INDUCED GASTRIC ULCERS IN RATS (*)
(*) The ulcers are induced according to the method of Takagi-Okabe (K.
Takagi et al., Jap. J. Pharmacol., 18, 9 (1968)

The next test deals with gastric secretion. Description: Antisecretory activity in rats (Shay method). As to conditions: subcutaneously; for ED50: Rattus norvegicus, sc, read-out: ED50 (Fiducial Limits For P = 0.05); for Potency Ratio (Fiducial Limits For P=0.05): PGE2 = 1 (conventional value). It is filed as in vivo, rat.
Text: as §1
ANTISECRETORY ACTIVITY IN RATS (*)
(*) The antisecretory activity was studied according to H. Shay et al.,

Test [2] deals with bronchospasm in guinea-pigs. Briefly: Anti-bronchospastic (anti-asthmatic) activity in guinea-pigs (histamine- and anaphylactic shock-induced bronchospasm). Also noted: species or system guinea pig. As to conditions: in vivo and in vitro in guinea-pigs; for anti-bronchospastic activity: compared with natural PGE2; for anti-bronchospastic activity relative to natural PGE2: histamine- and anaphylactic shock-induced. On the procedure:
Four hours later, the same animals were treated with a spray of the test compounds at different solutions in saline, and with a spray of standard PGE2 solution. They were then given another histamine spray (0.2%) and again, the times taken for bronchospasm to appear were noted.

Where two headings read alike, the source gives them in different places.

Consider `CCCC[C@H](C)[C@H](O)C#C[C@@H]1[C@H](O)CC(=O)[C@H]1C/C=C\CCCC(=O)O` (single isomer, unassigned) [16s-methyl-5c-9-oxo-11α,15S-trihydroxy-8,12-diiso-prost-5-en-13-ynoicacid], for which the “activity in vitro in the ileum of guinea-pigs” value in the test on ileum of guinea-pigs was “practically devoid of any activity”. For the same molecule, the spasmogenic activity result in the test with uterus of rats is “excellent spasmogenic activity”. Further, the “activity in vitro in the stomach of rats” value with stomach of rats is “practically devoid of any activity”.

As a reminder, the ED50 is the dose that gives a 50% effect, or the effect in half of the subjects. For `CCCCC[C@H](O)C#C[C@H]1[C@H](O)CC(=O)[C@@H]1C/C=C\CCCC(=O)O` [13,14-dehydro-PGE2, reference compound], the ED50 in test [1] (po, os) was determined as 0.063 mg/kg; in test [1] (sc, subcutaneously), 0.043 mg/kg; in the test with gastric secretion it was 0.055 mg/kg. Besides, the figures for the “Potency Ratio (Fiducial Limits For P=0.05)” value (in test [1] (os); in test [1] (subcutaneously); in the test on gastric secretion) were 9.3(4.5-19.0), 4.9(2.4-9.6) and 2.6 (1.4-4.5), respectively.

For `CCCCC(C)[C@H](O)C#C[C@H]1[C@H](O)CC(=O)[C@@H]1C/C=C\CCCC(=O)O` (stereo partly drawn) [16(S,R)-methyl-13,14-dehydro-PGE2, reference compound], the ED50 in test [1] (po, os) amounted to 0.0202 mg/kg; in test [1] (sc, subcutaneously), 0.00341 mg/kg; with gastric secretion, 0.0068 mg/kg. Moreover, the “Potency Ratio (Fiducial Limits For P=0.05)” value in test [1] (os) is 39.8(17.1-102.1); in test [1] (subcutaneously), 30.8(20.4-44.2); in the test on gastric secretion it was 28.2 (18.1-41.6).

For the molecule `CCCC[C@@H](C)[C@@H](O)C#C[C@H]1[C@H](O)CC(=O)[C@@H]1C/C=C\CCCC(=O)O` [16R-methyl-13,14-dehydro-15-epi-PGE2, 16r-methyl-5c-9-oxo-11α,15R-dihydroxy-prost-5-en-13-ynoic acid], the ED50 in test [1] (po, os) came out at 0.141 mg/kg; in test [1] (sc, subcutaneously), 0.0087 mg/kg; with gastric secretion, 0.0328 mg/kg. Moreover, the “Potency Ratio (Fiducial Limits For P=0.05)” value in test [1] (os) is recorded as 7.3(3.1-16.9); in test [1] (subcutaneously) it was 7.4(4.8-11.1); in the test with gastric secretion, 3.8 (2.7-5.5).

Consider `CCCC[C@@H](C)[C@H](O)C#C[C@H]1[C@H](O)CC(=O)[C@@H]1C/C=C\CCCC(=O)O` [16R-methyl-13,14-dehydro-PGE2, 16r-methyl-5c-9-oxo-11α,15S-dihydroxy-prost-5-en-13-ynoic acid], for which the ED50 in test [1] (po, os) was 0.0098 mg/kg; in test [1] (sc, subcutaneously), 0.0015 mg/kg; in the test on gastric secretion, 0.0026 mg/kg. The “Potency Ratio (Fiducial Limits For P=0.05)” value in test [1] (os) is 105.6(46.6-282.6); in test [1] (subcutaneously) it was 43.1(28.4-64.6); in the test on gastric secretion, 48.3 (33.5-71.6). Besides, the anti-bronchospastic activity result in test [2] was “very good anti-bronchospastic activity”. Further, in test [2], the “anti-bronchospastic activity relative to natural PGE2” value is “four to six”.

Regarding `CCCC[C@H](C)[C@@H](O)C#C[C@H]1[C@H](O)CC(=O)[C@@H]1C/C=C\CCCC(=O)O` [16S-methyl-13,14-dehydro-15-epi-PGE2, 16s-methyl-5c-9-oxo-11α,15R-dihydroxy-prost-5-en-13-ynoic acid], the ED50 in test [1] (po, os) was 0.22 mg/kg; in test [1] (sc, subcutaneously), 0.0911 mg/kg. Further, the “Potency Ratio (Fiducial Limits For P=0.05)” value in test [1] (os) is listed as 3.8(1.75-8.4); in test [1] (subcutaneously), 2.9(1.9-4.5).

For the molecule `CCCC[C@H](C)[C@H](O)C#C[C@H]1[C@H](O)CC(=O)[C@@H]1C/C=C\CCCC(=O)O` [16S-methyl-13,14-dehydro-PGE2, 16S-methyl-5c-9-oxo-11α,15S-dihydroxy-prost-5-en-13-ynoic acid], the ED50 in test [1] (po, os) is 0.015 mg/kg; in test [1] (sc, subcutaneously) it was 0.0009 mg/kg; with gastric secretion, 0.0042 mg/kg. Further, the “Potency Ratio (Fiducial Limits For P=0.05)” value in test [1] (os) was 42.8(18.8-101.7); in test [1] (subcutaneously), 69.8(46.4-105.2); in the test with gastric secretion, 35.7 (20.8-68.9). Also, the anti-bronchospastic activity entry in test [2] is “very good anti-bronchospastic activity”. In addition, in test [2], the “anti-bronchospastic activity relative to natural PGE2” value is “four to six”.

Consider `CCCC[C@H](C)[C@H](O)/C=C/[C@H]1[C@H](O)CC(=O)[C@@H]1C/C=C\CCCC(=O)O` [16S-methyl-PGE2, reference compound], for which the 50% effective dose (ED50) in test [1] (po, os) stood at 0.0242 mg/kg; in test [1] (sc, subcutaneously) it was 0.0177 mg/kg; in the test with gastric secretion, 0.0112 mg/kg. Besides, the figures for the “Potency Ratio (Fiducial Limits For P=0.05)” value (in test [1] (os); in test [1] (subcutaneously); with gastric secretion) were 39.0(18.9-80.3), 12.8(9.0-17.9) and 13.5 (7.9-23.7), respectively.

Regarding `CCCCC[C@H](O)/C=C/[C@H]1[C@H](O)CC(=O)[C@@H]1C/C=C\CCCC(=O)O` [PGE2, reference compound], the ED50 in test [1] (po, os) came out at 0.717 mg/kg; in test [1] (sc, subcutaneously) it was 0.119 mg/kg; in the test with gastric secretion, 0.155 mg/kg.

(Values after patent US4041064A, “16-Methyl prost-5-en-13-ynoic acid derivatives” (Carlo-Erba S.p.A., priority 1974, dated 1977).)
